Experimental data reported in PubChem BioAssay AID2060894 (Molecular Pharmacology Branch, DTP, NCI, 2025).
pIC50: −log10 of the molar value. Values belong to the compound of their own block, whether it stands above or below them.

System: K12877-001-R-J1-PDC complex spheroid viability
Test: Anticancer human tumor K12877-001-R-J1-PDC patient-derived lung adenocarcinoma cell line growth inhibition [RAS]
Details: for pIC50: curve of first compound; for viability, T/C: stronger effect = lower value
How it was run: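 Tumour cells grown as complex spheroids with HUVEC endothelial cells and mesenchymal stem cells, treated with RAS pathway inhibitor combinations. Each agent spans half-log steps from near clinical Cmax, or 10 microM where Cmax is unknown.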
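Note: spheroids exposed to agents for one week before readout.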
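Throughout, for viability, T/C: tumour cells co-cultured with HUVEC and mesenchymal stem cells in spheroids.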

pIC50 (second compound 0.000949 µM): 7.77
pIC50 (second compound 0.003 µM): 7.82
pIC50 (second compound 0.00949 µM): 7.88
pIC50 (second compound 0.03 µM): 7.80
pIC50 (second compound 0.0949 µM): 7.86
pIC50 (second compound 0.3 µM): 7.96
Compound: CC1(C)CCC(Nc2ncc(C(F)(F)F)c(-c3c[nH]c4c(P(C)(C)=O)c(C#N)ccc34)n2)CN1 (stereo unspecified) + CCn1c(-c2cccnc2C(C)OC)c2c3cc(ccc31)N1CCOC(CC(NC(=O)C(C(C)C)N(C)C(=O)C3(F)CCN(C(=O)C#CC(C)(C)N(C)C)CC3)C(=O)N3CCCC(N3)C(=O)OCC(C)(C)C2)C1
viability, T/C (second compound 0.000949 µM, first compound 0.000949 µM): 88.3%
viability, T/C (second compound 0.000949 µM, first compound 0.003 µM): 79%
viability, T/C (second compound 0.000949 µM, first compound 0.00949 µM): 63.7%
viability, T/C (second compound 0.000949 µM, first compound 0.03 µM): 36.4%
viability, T/C (second compound 0.000949 µM, first compound 0.0949 µM): 24.2%
viability, T/C (second compound 0.000949 µM, first compound 0.3 µM): 18.5%
viability, T/C (second compound 0.003 µM, first compound 0.000949 µM): 80.2%
viability, T/C (second compound 0.003 µM, first compound 0.003 µM): 81%
viability, T/C (second compound 0.003 µM, first compound 0.00949 µM): 57.8%
viability, T/C (second compound 0.003 µM, first compound 0.03 µM): 35.9%
viability, T/C (second compound 0.003 µM, first compound 0.0949 µM): 24.9%
viability, T/C (second compound 0.003 µM, first compound 0.3 µM): 18%
viability, T/C (second compound 0.00949 µM, first compound 0.000949 µM): 74.1%
viability, T/C (second compound 0.00949 µM, first compound 0.003 µM): 71.8%
viability, T/C (second compound 0.00949 µM, first compound 0.00949 µM): 55.3%
viability, T/C (second compound 0.00949 µM, first compound 0.03 µM): 35.1%
viability, T/C (second compound 0.00949 µM, first compound 0.0949 µM): 22.7%
viability, T/C (second compound 0.00949 µM, first compound 0.3 µM): 17.1%
viability, T/C (second compound 0.03 µM, first compound 0.000949 µM): 74.7%
viability, T/C (second compound 0.03 µM, first compound 0.003 µM): 73.7%
viability, T/C (second compound 0.03 µM, first compound 0.00949 µM): 63.8%
viability, T/C (second compound 0.03 µM, first compound 0.03 µM): 33%
viability, T/C (second compound 0.03 µM, first compound 0.0949 µM): 20.9%
viability, T/C (second compound 0.03 µM, first compound 0.3 µM): 19%
viability, T/C (second compound 0.0949 µM, first compound 0.000949 µM): 72.8%
viability, T/C (second compound 0.0949 µM, first compound 0.003 µM): 66.1%
viability, T/C (second compound 0.0949 µM, first compound 0.00949 µM): 58.4%
viability, T/C (second compound 0.0949 µM, first compound 0.03 µM): 34.7%
viability, T/C (second compound 0.0949 µM, first compound 0.0949 µM): 21.8%
viability, T/C (second compound 0.0949 µM, first compound 0.3 µM): 18%
viability, T/C (second compound 0.3 µM, first compound 0.000949 µM): 69.1%
viability, T/C (second compound 0.3 µM, first compound 0.003 µM): 63.7%
viability, T/C (second compound 0.3 µM, first compound 0.00949 µM): 53.9%
viability, T/C (second compound 0.3 µM, first compound 0.03 µM): 29.6%
viability, T/C (second compound 0.3 µM, first compound 0.0949 µM): 19%
viability, T/C (second compound 0.3 µM, first compound 0.3 µM): 14.8%

pIC50 (second compound 0.0316 µM): < 5.00
pIC50 (second compound 0.1 µM): < 5.00
pIC50 (second compound 0.316 µM): < 5.00
pIC50 (second compound 1 µM): < 5.00
pIC50 (second compound 3.16 µM): < 5.00
pIC50 (second compound 10 µM): < 5.00
Compound: NC1c2ccccc2OC12CCN(c1cnc3c(N4CCCc5ncccc54)n[nH]c3n1)CC2 (stereo unspecified) + C#Cc1c(F)ccc2cc(O)cc(-c3ncc4c(N5CC6CCC(C5)N6)nc(OCC56CCCN5CC(F)C6)nc4c3F)c12
viability, T/C (second compound 0.0316 µM, first compound 0.0316 µM): 104%
viability, T/C (second compound 0.0316 µM, first compound 0.1 µM): 92.3%
viability, T/C (second compound 0.0316 µM, first compound 0.316 µM): 86.8%
viability, T/C (second compound 0.0316 µM, first compound 1 µM): 93.1%
viability, T/C (second compound 0.0316 µM, first compound 3.16 µM): 85.3%
viability, T/C (second compound 0.0316 µM, first compound 10 µM): 50.4%
viability, T/C (second compound 0.1 µM, first compound 0.0316 µM): 106%
viability, T/C (second compound 0.1 µM, first compound 0.1 µM): 91.1%
viability, T/C (second compound 0.1 µM, first compound 0.316 µM): 90%
viability, T/C (second compound 0.1 µM, first compound 1 µM): 78.9%
viability, T/C (second compound 0.1 µM, first compound 3.16 µM): 84.2%
viability, T/C (second compound 0.1 µM, first compound 10 µM): 58.9%
viability, T/C (second compound 0.316 µM, first compound 0.0316 µM): 98.4%
viability, T/C (second compound 0.316 µM, first compound 0.1 µM): 93.2%
viability, T/C (second compound 0.316 µM, first compound 0.316 µM): 88.5%
viability, T/C (second compound 0.316 µM, first compound 1 µM): 86.8%
viability, T/C (second compound 0.316 µM, first compound 3.16 µM): 74.2%
viability, T/C (second compound 0.316 µM, first compound 10 µM): 55.8%
viability, T/C (second compound 1 µM, first compound 0.0316 µM): 105%
viability, T/C (second compound 1 µM, first compound 0.1 µM): 97.1%
viability, T/C (second compound 1 µM, first compound 0.316 µM): 86.8%
viability, T/C (second compound 1 µM, first compound 1 µM): 87.6%
viability, T/C (second compound 1 µM, first compound 3.16 µM): 71.2%
viability, T/C (second compound 1 µM, first compound 10 µM): 54.8%
viability, T/C (second compound 3.16 µM, first compound 0.0316 µM): 99.7%
viability, T/C (second compound 3.16 µM, first compound 0.1 µM): 84.8%
viability, T/C (second compound 3.16 µM, first compound 0.316 µM): 104%
viability, T/C (second compound 3.16 µM, first compound 1 µM): 87.8%
viability, T/C (second compound 3.16 µM, first compound 3.16 µM): 72.7%
viability, T/C (second compound 3.16 µM, first compound 10 µM): 55.1%
viability, T/C (second compound 10 µM, first compound 0.0316 µM): 90.4%
viability, T/C (second compound 10 µM, first compound 0.1 µM): 97.6%
viability, T/C (second compound 10 µM, first compound 0.316 µM): 102%
viability, T/C (second compound 10 µM, first compound 1 µM): 91.8%
viability, T/C (second compound 10 µM, first compound 3.16 µM): 64.9%
viability, T/C (second compound 10 µM, first compound 10 µM): 63.8%

pIC50 (second compound 0.000949 µM): < 5.00
pIC50 (second compound 0.003 µM): < 5.00
pIC50 (second compound 0.00949 µM): < 5.00
pIC50 (second compound 0.03 µM): < 5.00
pIC50 (second compound 0.0949 µM): < 5.00
pIC50 (second compound 0.3 µM): < 5.00
Compound: C[C@@H](NC(=O)c1ncnc(N)c1Cl)c1ncc(C(=O)Nc2cc(C(F)(F)F)c(Cl)cn2)s1 + CCn1c(-c2cc(N3CCN(C)CC3)cnc2C(C)OC)c2c3cc(ccc31)-c1csc(n1)CC(NC(=O)C1CC1C)C(=O)N1CCCC(N1)C(=O)OCC(C)(C)C2
viability, T/C (second compound 0.000949 µM, first compound 0.0316 µM): 85.3%
viability, T/C (second compound 0.000949 µM, first compound 0.1 µM): 85.3%
viability, T/C (second compound 0.000949 µM, first compound 0.316 µM): 81.8%
viability, T/C (second compound 0.000949 µM, first compound 1 µM): 84.3%
viability, T/C (second compound 0.000949 µM, first compound 3.16 µM): 89.9%
viability, T/C (second compound 0.000949 µM, first compound 10 µM): 75.3%
viability, T/C (second compound 0.003 µM, first compound 0.0316 µM): 72.5%
viability, T/C (second compound 0.003 µM, first compound 0.1 µM): 78.3%
viability, T/C (second compound 0.003 µM, first compound 0.316 µM): 70.8%
viability, T/C (second compound 0.003 µM, first compound 1 µM): 83.6%
viability, T/C (second compound 0.003 µM, first compound 3.16 µM): 77.2%
viability, T/C (second compound 0.003 µM, first compound 10 µM): 83.2%
viability, T/C (second compound 0.00949 µM, first compound 0.0316 µM): 66.4%
viability, T/C (second compound 0.00949 µM, first compound 0.1 µM): 62.7%
viability, T/C (second compound 0.00949 µM, first compound 0.316 µM): 67.8%
viability, T/C (second compound 0.00949 µM, first compound 1 µM): 69.5%
viability, T/C (second compound 0.00949 µM, first compound 3.16 µM): 70.1%
viability, T/C (second compound 0.00949 µM, first compound 10 µM): 68.8%
viability, T/C (second compound 0.03 µM, first compound 0.0316 µM): 62.2%
viability, T/C (second compound 0.03 µM, first compound 0.1 µM): 58.3%
viability, T/C (second compound 0.03 µM, first compound 0.316 µM): 60%
viability, T/C (second compound 0.03 µM, first compound 1 µM): 68.3%
viability, T/C (second compound 0.03 µM, first compound 3.16 µM): 66.3%
viability, T/C (second compound 0.03 µM, first compound 10 µM): 112%
viability, T/C (second compound 0.0949 µM, first compound 0.0316 µM): 101%
viability, T/C (second compound 0.0949 µM, first compound 0.1 µM): 89.7%
viability, T/C (second compound 0.0949 µM, first compound 0.316 µM): 97.8%
viability, T/C (second compound 0.0949 µM, first compound 1 µM): 106%
viability, T/C (second compound 0.0949 µM, first compound 3.16 µM): 129%
viability, T/C (second compound 0.0949 µM, first compound 10 µM): 121%
viability, T/C (second compound 0.3 µM, first compound 0.0316 µM): 100%
viability, T/C (second compound 0.3 µM, first compound 0.1 µM): 100%
viability, T/C (second compound 0.3 µM, first compound 0.316 µM): 103%
viability, T/C (second compound 0.3 µM, first compound 1 µM): 111%
viability, T/C (second compound 0.3 µM, first compound 3.16 µM): 97.8%
viability, T/C (second compound 0.3 µM, first compound 10 µM): 111%
